Experiments:
Type in all cases: cell-based
AR-positive cells = experiment: Cell cycle analysis and apoptosis (cleaved PARP immunoblot); details: FIG. 2
Procedure: For cell cycle analysis, cells were washed 48 h post-treatment with PBS and fixed in 70% ethanol overnight. The cells were washed again with PBS, stained with propidium iodide and analyzed by flow cytometry.
(§1) For Western blot analysis, 200 ug total protein extract was boiled in sample buffer and 10-20 μg aliquots were separated by SDS-PAGE and transferred onto Polyvinylidene Difluoride membrane (GE Healthcare). The membrane was incubated for one hour in blocking buffer [Tris-buffered saline, 0.1% Tween (TBS-T), 5% nonfat dry milk] followed by incubation overnight at 4° C. with the primary antibody. Following a wash with TBS-T, the blot was incubated with horseradish peroxidase-conjugated secondary antibody and signals were visualized by enhanced chemiluminescence system as per manufacturer's protocol (GE Healthcare).

AR-gene signature = experiment: Gene expression array, GSEA of the AR target gene signature; details: AR-positive cells; 500 nM, 24 h; FIG. 6
Procedure: (§2) Cells treated with only vehicle or 10 nM DHT served as controls. […] Expression profiling was performed using the Agilent Whole Human Genome Oligo Microarray (SantaClara, Calif.) according to the manufacturer's protocol. All samples were run in technical duplicates or quadruplets against control. Over- and under-expressed gene sets were generated by filtering to include only 2-fold average over- or underexpression (Log ratio with p<0.001) in all hybridizations.

MYC signature [1] = experiment: Gene expression array, GSEA of MYC signature, LNCaP; details: LNCaP after JQ1 treatment
Procedure: as §2

MYC signature [2] = experiment: Gene expression array, GSEA of MYC signature, DU145; details: DU145 after JQ1 treatment
Procedure: as §2

PSA and ERG = experiment: QRT-PCR and immunoblot of AR-target genes in VCaP; details: VCaP cells; FIGS. 4 and 5
Procedure: (§3) Total RNA was isolated from cells using RNeasy Mini Kit (Qiagen) and cDNA was synthesized from 1,000 ng total RNA using SuperScript III First-Strand Synthesis SuperMix (Invitrogen). QPCRs were performed in duplicate or triplicate using Taqman assays (Applied Biosystems) or standard SYBR green reagents and protocols on a StepOnePlus Real-Time PCR system (Applied Biosystems). The target mRNA expression was quantified using ΔΔCt method and normalized to GAPDH expression. All primers were designed using Primer 3 (http://frodo.wi.mit.edu/primer3/) and synthesized by Integrated DNA Technologies (Coralville, Iowa).
as §1

[3] = test system: 5 prostate cancer and 1 benign prostate cell line; experiment: Cell viability assay, panel of prostate cell lines (Cell-Titer GLO); details: three of the AR-signaling positive cells; FIG. 1
Procedure: VCaP prostate cancer cells were grown in DMEM with Glutamax (Gibco), LNCaP, 22RV1, DU145 and PC3 prostate cancer cell lines were grown in RPMI 1640, all were supplemented with 10% FBS (Invitrogen) in 5% CO2 cell culture incubator. The immortalized benign prostate cell line RWPE-1 was grown in keratinocyte media with supplements (Lonza). All cell lines were tested and found to be free of mycoplasma contamination.
Cells were seeded in 96-well plates at 2000-10,000 cells/well (optimum density for growth) in a total volume of 100 μl media containing 10% FBS. Serially diluted compounds in 100 μl media were added to the cells 12 h later. Following 96 h. incubation, cell viability was assessed by Cell-Titer GLO (Promega). The values were normalized and IC50 was calculated using GraphPad Prism software. […] After 12 days cells were fixed with methanol, stained with crystal violet and photographed. For colorimetric assays, the stained wells were treated with 500 μl 10% acetic acid and the absorbance was measured at 560 nm using a spectrophotometer.

BRD4 = experiment: ChIP-seq of BRD4 in DHT-stimulated VCaP cells; details: JQ1 500 nM, FIG. 20
Procedure: (§4) The ChIP assays for BRD2, BRD3, BRD4, AR, RNA PolII, ERG and H3K27ac were performed using HighCell ChIP kit (Diagenode) according to manufacturer's protocol. […] Next, cells were cross-linked for 10 min. with 1% formaldehyde. […] Chromatin equivalent to 5×10^6 cells were used for ChIP using different antibodies. ChIP DNA was isolated (IPure Kit, Diagenode) from samples by incubation with the antibody at 4° C. overnight followed by wash and reversal of cross-linking. The ChIP-seq sample preparation for sequencing was performed according to the manufacturer's instructions (Illumina). […] A single A-base was added to fragment ends by Klenow fragment (3′ to 5′ exo minus; NEB) followed by ligation of Illumina adaptors (Quick ligase, NEB). The adaptor-modified DNA fragments were enriched by PCR using the Illumina Barcode primers and Phusion DNA polymerase (NEB). PCR products were size selected using 3% NuSieve agarose gels (Lonza) followed by gel extraction using QIAEX II reagents (QIAGEN). Libraries were quantified with the Bioanalyzer 2100 (Agilent) and sequenced on the Illumina HiSeq 2000 Sequencer (100 nucleotide read length).
For enrichment plots shown in FIGS. 17, 19 and 20, identified peaks for each sample are centered by peak summit and average coverage per million was counted within 1500 bp relative to the peak center.

MYC = MYC levels in prostate cancer cells; details: AR-positive cells sensitive to JQ1, not AR-negative cells
Procedure: as §3, §1

BRD2/3/4 = experiment: ChIP-seq of BRD2/3/4 in VCaP cells; details: 500 nM, 12 h
Procedure: as §4

[4] = test system: RWPE and PC3 cells overexpressing ERG; experiment: Matrigel invasion assay, RWPE and PC3 cells overexpressing ERG; details: 500 nM
Procedure: Medium containing 10% FBS in the lower chamber served as chemoattractant. […] For colorimetric assays, the inserts were treated with 150 μl of 10% acetic acid and the absorbance measured at 560 nm using a spectrophotometer (GE Healthcare).

[5] = gene set SCHLOSSER_MYC_AND_SERUM_RESPONSE_SYNERGY
[6] = gene set SCHLOSSER_MYC_TARGETS_AND_SERUM_RESPONSE_UP
[7] = gene set SCHUHMACHER_MYC_TARGETS_UP

Cc1sc2c(c1C)C(c1ccc(Cl)cc1)=N[C@@H](CC(=O)OC(C)(C)C)c1nnc(C)n1-2 [JQ1]
cell cycle arrest and apoptosis (AR-positive cells): induced G0-G1 arrest, apoptosis | GSEA of AR-gene signature (AR-gene signature): significantly repressed | NES (MYC signature [1]; gene set MYC_UP.V1_UP): −2.068 | NES (MYC signature [1]; [5]): −1.751 | NES (MYC signature [1]; [6]): −1.957 | NES (MYC signature [1]; [7]): −2.403 | NES (MYC signature [2]; gene set MYC_UP.V1_UP): −0.952 | NES (MYC signature [2]; [5]): −1.085 | NES (MYC signature [2]; [6]): −0.734 | NES (MYC signature [2]; [7]): −1.086 | PSA and ERG mRNA and protein level (PSA and ERG): dose-dependent decrease in PSA and ERG | sensitivity of prostate cell lines [3]: sensitive | DHT induced BRD4 recruitment to the AR-BRD4 shared loci (BRD4): almost completely abrogated | MYC levels (MYC): attenuated | recruitment of BRD2/3/4 to the chromatin (BRD2/3/4): reduction in the recruitment | ERG-mediated invasion [4]: attenuation of ERG-mediated invasion

Reference: US9580430B2, “9H-pyrimido[4,5-B]indoles and related analogs as BET bromodomain inhibitors” (THE REGENTS OF THE UNIVERSITY OF MICHIGAN, priority 2014, dated 2017)
